Measurements as given in patent publication US10653659B2, “Compositions comprising a compound from the family of avermectins and an agonist compound for at least one of the retinoic acid receptors for treating acne” (GALDERMA SA, priority 2014, dated 2020).
Values joined by “and” are separate entries in the source; they are usually repeats but may differ in a detail not shown here. Equal entries are not always repeated.

Each compound was assayed on patients with acne (assay: Comparative clinical study among patients with acne). Details: Treatment A (first treatment, retinoids without ivermectin); scale from 0 to 5; one acne patient per line; duration varies per patient.
Type: in vivo, human
Protocol: A comparative study was carried out among patients with acne. […] These same patients then received a second treatment (Treatment B) containing ivermectin and were followed over several months.
By way of example, mention may be made of: Differin 0.3%®, Epiduo®, Metrogel® and Epiduo Forte® marketed by Galderma Laboratories, Accutane® from Roche Laboratories, and Ziana® from Medicis Pharmaceutical Corp.
For `COc1ccc(-c2ccc3cc(C(=O)O)ccc3c2)cc1C12CC3CC(CC(C3)C1)C2` [adapalene 0.3%, 6-[3-(1-adamantyl)-4-methoxyphenyl]-2-naphthoic acid], the Satisfaction score was 1 and 0. For `CC1=C(/C=C/C(C)=C/C=C/C(C)=C/CO)C(C)(C)CCC1` [retinol 0.05%, retinol], the Satisfaction score was 0. In the case of `CC1=C(/C=C/C(C)=C/C=C/C(C)=C/C(=O)O)C(C)(C)CCC1` [tretinoin 0.05%, tretinoin], the Satisfaction score is reported as 0.
